Measured values published in BindingDB's records for doi:10.1016/j.bioorg.2016.01.003 (Panjab University, 2016).

Experiments:
Assay in all cases: Radioligand Binding Assay
Adenosine receptor A2b = biological target: T1, Adenosine receptor A2b (Homo sapiens, UniProt P29275)
T1 sequence (P29275 whole entry): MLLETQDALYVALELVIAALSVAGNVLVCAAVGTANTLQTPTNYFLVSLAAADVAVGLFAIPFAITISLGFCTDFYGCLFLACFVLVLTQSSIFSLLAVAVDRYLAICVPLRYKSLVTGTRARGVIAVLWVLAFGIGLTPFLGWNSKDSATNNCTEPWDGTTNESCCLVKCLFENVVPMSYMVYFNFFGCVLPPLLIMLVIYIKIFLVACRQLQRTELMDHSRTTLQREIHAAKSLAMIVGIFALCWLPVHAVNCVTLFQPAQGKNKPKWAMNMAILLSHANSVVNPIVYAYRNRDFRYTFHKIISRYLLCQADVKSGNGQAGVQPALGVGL

Adenosine receptor A1 = biological target: T2, Adenosine receptor A1 (Homo sapiens, UniProt P30542)
T2 sequence (P30542 whole entry): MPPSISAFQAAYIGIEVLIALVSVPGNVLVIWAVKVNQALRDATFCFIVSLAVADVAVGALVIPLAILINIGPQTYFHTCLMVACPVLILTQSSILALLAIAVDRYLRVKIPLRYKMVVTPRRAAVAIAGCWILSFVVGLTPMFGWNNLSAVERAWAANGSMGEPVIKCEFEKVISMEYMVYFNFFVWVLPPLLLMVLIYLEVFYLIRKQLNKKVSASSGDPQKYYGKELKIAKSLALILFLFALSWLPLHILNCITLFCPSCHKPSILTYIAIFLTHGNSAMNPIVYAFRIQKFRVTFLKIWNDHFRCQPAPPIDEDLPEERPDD
Experimental: (§1) Dissociation constants at A1, A2A and A3 receptors (Ki-values) were determined in radioligand competition experiments as reported earlier [19,20]. All binding experiments were done in a microplate format utilizing a 96-well microplate filtration system (Millipore Multiscreen MAFC). As radioligands the agonists [3H]CCPA (1 nM) for A1, [3H]NECA (10 nM) for A2A, and [3H]HEMADO (1 nM) for A3 receptors were used. Samples were incubated with 10 µg of membrane protein for 3 h at 25 °C, filtered through the built-in filter at the bottom of the wells and washed three times with […] of ice-cold binding buffer. After addition of 20 µl of scintillator to the dried filter plates samples were counted in a Wallac Micro-Beta counter. Nonspecific binding was determined in the presence of 1 mM theophylline ([3H]CCPA) or […] (N6-phenylisopropyladenosine; [3H]NECA and [3H] HEMADO).

Adenosine receptor A2a = Adenosine receptor A2a (Homo sapiens, UniProt P29274)
Experimental: as §1

Adenosine receptor A2a, sequence (P29274 whole entry): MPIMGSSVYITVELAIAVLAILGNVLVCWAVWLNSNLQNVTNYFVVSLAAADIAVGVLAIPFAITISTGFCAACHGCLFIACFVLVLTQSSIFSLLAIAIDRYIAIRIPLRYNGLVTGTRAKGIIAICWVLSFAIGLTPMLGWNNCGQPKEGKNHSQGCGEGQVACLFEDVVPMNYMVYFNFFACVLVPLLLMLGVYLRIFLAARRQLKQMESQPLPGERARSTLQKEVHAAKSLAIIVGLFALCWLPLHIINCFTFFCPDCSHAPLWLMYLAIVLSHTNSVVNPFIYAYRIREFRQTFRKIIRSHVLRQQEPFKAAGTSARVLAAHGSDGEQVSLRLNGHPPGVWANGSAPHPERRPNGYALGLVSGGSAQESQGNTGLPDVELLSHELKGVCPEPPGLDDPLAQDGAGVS

| Ki (Adenosine receptor A2b) [nM] | Ki (Adenosine receptor A1) [nM] | Ki (Adenosine receptor A2a) [nM] | SMILES |
| --- | --- | --- | --- |
| 980 | 319 | 170 | COC(=O)COc1ccc(-c2nc3c([nH]2)c(=O)n(C)c(=O)n3C)cc1 [1,3-Dimethyl-8-[4-(2-methoxy-2-oxoethoxy)-phenyl]xanthine (13, RB-419)] |
| 4800 | 847 | 75 | COc1ccc(-c2nc3c([nH]2)c(=O)n(C)c(=O)n3C)cc1OCC(=O)NCCN(C)C [1,3-Dimethyl-8-[{3-(2-(dimethylaminoethylamino)-2-oxoethoxy)-4-methoxy}-phenyl]-xanthine (16a, RB-413)] |
| 10000 | 9250 | 821 | COc1cc(-c2nc3c([nH]2)c(=O)n(C)c(=O)n3C)ccc1OCC(=O)NCCN(C)C [1,3-Dimethyl-8-[{4-(2-(dimethylaminoethylamino)-2-oxoethoxy)-3-methoxy}-phenyl]xanthine (15a, RB-386)] |
| 2830 | 683 | 163 | CN(C)CCNC(=O)COc1cccc(-c2nc3c([nH]2)c(=O)n(C)c(=O)n3C)c1 [1,3-Dimethyl-8-[3-{2-(dimethylaminoethylamino)-2-oxoethoxy}-phenyl]xanthine (14a, RB-379)] |
| 8050 | 1970 | 126 | CCN(CC)CCNC(=O)COc1cc(-c2nc3c([nH]2)c(=O)n(C)c(=O)n3C)ccc1OC [8-[{3-(2-(Diethylaminoethylamino)-2-oxoethoxy)-4-methoxy}phenyl]-1,3-dimethylxanthine (16b, RB-411)] |
| 903 | 220 | 100 | CN(C)CCNC(=O)COc1ccc(-c2nc3c([nH]2)c(=O)n(C)c(=O)n3C)cc1 [1,3-Dimethyl-8-[4-{2-(dimethylaminoethylamino)-2-oxoethoxy}-phenyl]xanthine (13a, RB-420)] |

| SMILES | Ki (Adenosine receptor A2b) [nM] | Ki (Adenosine receptor A1) [nM] | Ki (Adenosine receptor A2a) [nM] |
| --- | --- | --- | --- |
| COc1ccc(-c2nc3c([nH]2)c(=O)n(C)c(=O)n3C)cc1OCC(=O)N1CCCC1 [1,3-Dimethyl-8-[4-methoxy-3-{2-(pyrrolidin-1-yl)-2-oxoethoxy}-phenyl]xanthine (16c, RB-414)] | > 10000 | 5940 | 259 |
| COc1cc(-c2nc3c([nH]2)c(=O)n(C)c(=O)n3C)ccc1OCC(=O)n1ccnc1 [1,3-Dimethyl-8-[{4-(2-(imidazol-1-yl)-2-oxoethoxy)-3-methoxy}-phenyl]xanthine (15h, RB-390)] | > 30000 | > 30000 | 7740 |
| COc1ccc(CCNC(=O)COc2cccc(-c3nc4c([nH]3)c(=O)n(C)c(=O)n4C)c2)cc1OC [1,3-Dimethyl-8-[3-{2-(homoveratrylamino)-2-oxoethoxy}-phenyl]xanthine (14i, RB-377)] | > 10000 | 5980 | 1390 |
| CCN(CC)CCNC(=O)COc1ccc(-c2nc3c([nH]2)c(=O)n(C)c(=O)n3C)cc1OC [8-[{4-(2-(Diethylaminoethylamino)-2-oxoethoxy)-3-methoxy}-phenyl]-1,3-dimethyl-xanthine (15b, RB-388)] | > 10000 | > 10000 | 692 |
